Assay results taken from patent US20250011304A1, “CRYSTALLINE FORM OF N-(2-CHLORO-3-((5-CHLORO-3-METHYL-4-OXO-3,4-DIHYDROQUINAZOLIN-6-YL)AMINO)-4-FLUOROPHENYL)-3-FLUOROAZETIDINE-1-SULFONAMIDE” (Array BioPharma Inc., priority 2021, published 2025).
“Also recorded” adds a separate entry of the source.

Columns and labels:
[1] = PK (free brain-to-free plasma ratio) (mouse); format: in vivo; settings: male CD-1 mice, oral gavage 10 mg/kg, (B/P)*(Bfu/Pfu)
Method: The ability of N-(2-chloro-3-((5-chloro-3-methyl-4-oxo-3,4-dihydroquinazolin-6-yl)amino)-4-fluorophenyl)-3-fluoroazetidine-1-sulfonamide (Compound 1) to penetrate the BBB in mice was determined by evaluating the unbound brain-to-unbound plasma (also referred to as free brain-to-free plasma) concentration ratio in male CD-1 mice.
Brain compound levels were generated from oral mouse PK dosing with typical sampling times of 2, 4, 8, 12 and 24 hours post oral gavage dosing at 10 mg/kg. Brain samples were stored at −20±5° C. prior to analysis. Concentrations of Compound 1 in mouse brain homogenate were determined by liquid chromatography tandem mass spectrometry (LC-MS/MS) following protein precipitation with acetonitrile. A 12-point calibration curve, ranging from 0.5 to 10,000 ng/mL, was prepared in duplicate. […]
Brain-to-plasma ratios were calculated using the concentration of Compound 1 measured in the brain divided by the concentration of compound measured in the plasma. […] Free brain-to-free plasma ratios were calculated by multiplying the brain-to-plasma ratio by the in vitro brain homogenate free fraction divided by the in vitro plasma free fraction using the following equation: (B/P)*(Bfu/Pfu). […]

MDR1 (P-gp) = biological target: T1, MDR1 (P-gp) (Homo sapiens, UniProt P08183); assay: MDR1 LLC-PK1 permeability assay (efflux); format: in vitro ADME; settings: statement in background
T1 construct: expressed in transfected cells; host or cells: LLC-PK1
Source text: (§1) Final organic concentration in the assay was 1%.
(§2) The efflux ratios for N-(2-chloro-3-((5-chloro-3-methyl-4-oxo-3,4-dihydroquinazolin-6-yl)amino)-4-fluorophenyl)-3-fluoroazetidine-1-sulfonamide (Compound 1) when tested in this assay were 2.1 (MDR1) and 4.2 (BCRP).

BCRP [2] = biological target: T2, BCRP (Homo sapiens, UniProt Q9UNQ0); assay: BCRP MDCKII permeability assay (efflux); format: in vitro ADME; settings: statement in background
T2 construct: expressed in transfected cells; host or cells: MDCKII
T2 sequence (Q9UNQ0 1-655): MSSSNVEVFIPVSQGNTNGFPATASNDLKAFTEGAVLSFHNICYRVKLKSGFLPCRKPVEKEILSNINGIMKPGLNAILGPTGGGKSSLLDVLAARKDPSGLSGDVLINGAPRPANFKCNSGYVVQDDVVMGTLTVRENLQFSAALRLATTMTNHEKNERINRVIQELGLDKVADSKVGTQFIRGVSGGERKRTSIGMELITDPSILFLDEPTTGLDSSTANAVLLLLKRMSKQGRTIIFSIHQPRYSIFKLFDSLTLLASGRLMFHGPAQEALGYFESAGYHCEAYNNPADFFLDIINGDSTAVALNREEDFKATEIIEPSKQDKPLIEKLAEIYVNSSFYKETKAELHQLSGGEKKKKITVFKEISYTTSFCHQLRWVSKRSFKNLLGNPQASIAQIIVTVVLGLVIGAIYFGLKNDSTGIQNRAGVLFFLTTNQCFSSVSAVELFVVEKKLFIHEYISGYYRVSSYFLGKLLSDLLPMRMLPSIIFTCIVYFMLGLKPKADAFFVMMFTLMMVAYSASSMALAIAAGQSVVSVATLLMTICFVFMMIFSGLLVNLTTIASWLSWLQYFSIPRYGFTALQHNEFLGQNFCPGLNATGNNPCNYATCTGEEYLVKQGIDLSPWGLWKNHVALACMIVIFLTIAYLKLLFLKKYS
Source text: as §1, §2

[3] = biological target: T3, full-length FLAG-tagged B-Raf(V600E) (Homo sapiens, UniProt P15056, V600E); assay: BRAF V600E enzyme assay (TR-FRET competitive tracer displacement); format: binding; settings: 60 min, ambient temperature
T3 construct: 5 nM full-length, N-terminally FLAG-tagged B-Raf(V600E) (Origene Technologies, TP700031); purchased Origene Technologies TP700031
Method: A competitive displacement assay was configured for B-Raf that monitors the amount of a fluorescently-tagged “tracer” bound to B-Raf via TR-FRET from an anti-tag Eu-labeled antibody also bound to B-Raf. For full-length FLAG-tagged B-Raf(V600E), the assay mixtures consisted of 25 mM K^+HEPES, pH 7.4, 10 mM MgCl2, 0.01% Triton X-100, 1 mM DTT, 2% DMSO (from compound), 50 nM Tracer 1710 (ThermoFisher, PR9176A), 0.5 nM Eu anti-FLAG (M2)-cryptate Ab (Cisbio, 61FG2KLB) and 5 nM full-length, N-terminally FLAG-tagged B-Raf(V600E) (Origene Technologies, TP700031. N-(2-chloro-3-((5-chloro-3-methyl-4-oxo-3,4-dihydroquinazolin-6-yl)amino)-4-fluorophenyl)-3-fluoroazetidine-1-sulfonamide was diluted in DMSO across an 11-point dosing range created using a 3-fold serial dilution protocol at a top dose of 10 μM. The assay was run in 384-well, polystyrene, low-volume, non-treated, white microtiter plates (Costar 4512) in a final volume of 12 μL. Low control wells included 1 μM of a potent B-Raf inhibitor as a control. The assays were incubated at ambient temperature (typically 22° C.) for 60 min and then read on a PerkinElmer EnVision microplate reader using standard TRF settings (λEx=320 nm, λEm=615 & 665 nm). The ratioed counts (665 nm/615 nm) were converted to percent of control (POC) using the following equation:
[formula] • where: • xmax Average Uninhibited Controls • Xmin Average Background […]

[4] = Hygroscopicity (DVS water sorption and desorption); format: physicochemical; settings: for Hygroscopicity: DVS 0-90% RH; for Mass Gain at 25° C. and 60% RH / Mass Gain at 25° C. and 90% RH: DVS; for PXRD Post-DVS: solid form of powder remaining after DVS analysis
Method: Water sorption and desorption were analyzed with a DVS-Resolution. The microbalance was calibrated with a 100 mg standard weight on a monthly basis. About 8 mg of the compound was added to a sample pan and placed inside chamber A of the DVS-Resolution. Percent relative humidity was held at 0% for 1 hour, and increased to 90% in 10% increments, then ramped back to 0% in 10% increments. […] The powder material remaining following the DVS analysis was analyzed by PXRD to determine if a change in the diffraction pattern is observed.

[5] = Physical stability analysis by PXRD; format: physicochemical; settings: for physical stability under accelerated stability conditions: 70° C./75% relative humidity (RH) for 8 days
Method: Powder X-ray Diffraction (PXRD) method for characteristic peak determination Powder X-ray diffraction analysis was conducted using a Bruker AXS D8 Endeavor diffractometer equipped with a Copper (Cu) radiation source. The divergence slit was set at 15 mm continuous illumination. Diffracted radiation was detected by a PSD-Lynx Eye detector, with the detector PSD opening set at 2.99 degrees. The X-ray tube voltage and amperage were set to 40 kV and 40 mA respectively. Data was collected in the Theta-Theta goniometer at the Cu wavelength (CuKα=[…]) from 3.0 to 40.0 degrees 2-Theta using a step size of 0.01 degrees and a step time of 1.0 second. The antiscatter screen was set to a fixed distance of 3.0 mm. Samples were rotated at 15/min during collection. Samples were prepared by placing them in a silicon low background sample holder and rotated during collection. Data were collected using Bruker DIFFRAC Plus software and analysis was performed by EVA diffract plus software. The PXRD data file was not processed prior to peak searching. Using the peak search algorithm in the EVA software, peaks selected with a threshold value of 1 were used to make preliminary peak assignments. To ensure validity, adjustments were manually made; the output of automated assignments was visually checked, and peak positions were adjusted to the peak maximum. Peaks with relative intensity of >3% were generally chosen. Typically, the peaks which were not resolved or were consistent with noise were not selected. A typical error associated with the peak position from PXRD stated in USP up to +/−0.2° 2-Theta (USP-941).
Table 5 details the differences between Form 1 and amorphous form.

BCRP [6] = biological target: T4, BCRP (Mus musculus, UniProt Q7TMS5); settings: reported by Mittapalli et al.; cited from earlier work
T4 sequence (Q7TMS5 1-657): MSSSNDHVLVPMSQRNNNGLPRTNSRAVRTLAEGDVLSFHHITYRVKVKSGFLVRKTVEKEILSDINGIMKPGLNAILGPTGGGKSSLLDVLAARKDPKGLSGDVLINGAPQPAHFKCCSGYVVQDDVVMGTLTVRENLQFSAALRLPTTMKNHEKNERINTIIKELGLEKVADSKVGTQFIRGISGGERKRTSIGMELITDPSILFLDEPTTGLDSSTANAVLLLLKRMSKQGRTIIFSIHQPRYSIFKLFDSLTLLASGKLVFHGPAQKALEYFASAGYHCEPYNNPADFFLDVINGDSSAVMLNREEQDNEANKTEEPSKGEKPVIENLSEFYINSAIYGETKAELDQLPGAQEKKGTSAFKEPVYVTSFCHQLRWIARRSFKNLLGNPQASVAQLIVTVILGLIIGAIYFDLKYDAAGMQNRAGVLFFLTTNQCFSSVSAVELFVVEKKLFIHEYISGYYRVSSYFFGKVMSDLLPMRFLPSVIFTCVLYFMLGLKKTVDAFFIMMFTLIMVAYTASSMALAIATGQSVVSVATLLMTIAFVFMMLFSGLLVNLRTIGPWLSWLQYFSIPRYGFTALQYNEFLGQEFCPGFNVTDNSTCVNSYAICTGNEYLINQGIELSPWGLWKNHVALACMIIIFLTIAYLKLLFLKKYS

T1 sequence (P08183 whole entry, species assumed): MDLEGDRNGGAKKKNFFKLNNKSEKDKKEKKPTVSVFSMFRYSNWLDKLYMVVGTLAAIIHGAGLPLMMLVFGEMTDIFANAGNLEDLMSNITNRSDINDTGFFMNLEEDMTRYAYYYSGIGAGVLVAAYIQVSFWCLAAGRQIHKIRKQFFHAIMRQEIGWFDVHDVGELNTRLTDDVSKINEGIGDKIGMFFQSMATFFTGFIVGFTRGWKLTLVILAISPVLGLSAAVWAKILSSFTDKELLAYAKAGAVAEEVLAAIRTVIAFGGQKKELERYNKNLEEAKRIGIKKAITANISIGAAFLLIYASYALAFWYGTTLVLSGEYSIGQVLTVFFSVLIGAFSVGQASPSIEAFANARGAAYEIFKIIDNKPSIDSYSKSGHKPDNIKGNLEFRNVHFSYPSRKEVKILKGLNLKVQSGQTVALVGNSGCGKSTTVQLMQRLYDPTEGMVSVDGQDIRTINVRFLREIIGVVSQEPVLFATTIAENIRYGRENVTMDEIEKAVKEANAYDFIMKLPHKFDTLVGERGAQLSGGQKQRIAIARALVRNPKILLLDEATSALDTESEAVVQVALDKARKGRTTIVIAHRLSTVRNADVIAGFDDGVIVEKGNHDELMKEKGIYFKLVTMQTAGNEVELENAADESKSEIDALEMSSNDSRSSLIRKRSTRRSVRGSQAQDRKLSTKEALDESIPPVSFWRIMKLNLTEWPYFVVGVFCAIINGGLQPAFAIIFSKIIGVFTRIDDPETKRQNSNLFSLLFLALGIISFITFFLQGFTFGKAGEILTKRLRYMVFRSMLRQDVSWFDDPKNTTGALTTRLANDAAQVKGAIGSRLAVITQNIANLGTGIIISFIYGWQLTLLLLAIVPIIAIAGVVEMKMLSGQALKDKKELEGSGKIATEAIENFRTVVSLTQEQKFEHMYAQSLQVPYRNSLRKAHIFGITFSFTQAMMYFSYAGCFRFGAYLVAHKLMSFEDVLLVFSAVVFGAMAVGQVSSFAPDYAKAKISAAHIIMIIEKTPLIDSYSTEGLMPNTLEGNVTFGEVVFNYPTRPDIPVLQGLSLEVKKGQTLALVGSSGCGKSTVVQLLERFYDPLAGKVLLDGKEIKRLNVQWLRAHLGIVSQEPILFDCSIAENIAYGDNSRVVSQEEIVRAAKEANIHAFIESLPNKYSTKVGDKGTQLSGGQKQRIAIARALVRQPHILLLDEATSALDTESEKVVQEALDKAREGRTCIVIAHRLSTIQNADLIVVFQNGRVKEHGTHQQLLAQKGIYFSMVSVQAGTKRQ
T3 sequence (P15056 whole entry V600E): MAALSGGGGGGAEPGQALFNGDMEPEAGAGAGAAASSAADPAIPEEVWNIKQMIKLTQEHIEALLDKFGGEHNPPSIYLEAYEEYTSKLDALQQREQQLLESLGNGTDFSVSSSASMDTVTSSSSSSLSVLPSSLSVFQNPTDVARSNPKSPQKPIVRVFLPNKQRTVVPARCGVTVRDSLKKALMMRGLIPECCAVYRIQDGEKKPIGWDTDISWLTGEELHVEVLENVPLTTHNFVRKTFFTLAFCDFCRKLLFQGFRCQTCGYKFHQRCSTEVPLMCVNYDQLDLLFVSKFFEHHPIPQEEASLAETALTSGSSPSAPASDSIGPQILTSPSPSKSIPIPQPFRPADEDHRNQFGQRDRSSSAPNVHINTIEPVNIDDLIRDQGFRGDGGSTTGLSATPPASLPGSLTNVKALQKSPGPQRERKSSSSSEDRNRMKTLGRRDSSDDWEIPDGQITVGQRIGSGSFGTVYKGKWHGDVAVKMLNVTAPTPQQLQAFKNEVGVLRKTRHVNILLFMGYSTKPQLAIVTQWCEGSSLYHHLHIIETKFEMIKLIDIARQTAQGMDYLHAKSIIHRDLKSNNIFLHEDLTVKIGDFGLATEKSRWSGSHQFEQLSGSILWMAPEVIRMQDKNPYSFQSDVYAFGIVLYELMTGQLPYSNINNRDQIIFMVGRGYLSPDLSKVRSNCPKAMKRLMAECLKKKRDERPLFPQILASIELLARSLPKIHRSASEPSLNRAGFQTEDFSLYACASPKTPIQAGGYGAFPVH

Structure (SMILES) | Mass Gain at 25° C. and 90% RH [4] | Solid form identified by PXRD after 8 days ([5]; stored at 5° C.) | Solid form identified by PXRD after 8 days ([5]; stored at 70° C./75% RH) | Hygroscopicity [4] | physical stability under accelerated stability conditions [5] | BCRP efflux ratio (BCRP [6]) | other results
Cn1cnc2ccc(Nc3c(F)ccc(NS(=O)(=O)N4CC(F)C4)c3Cl)c(Cl)c2c1=O [Compound 1, N-(2-chloro-3-((5-chloro-3-methyl-4-oxo-3,4-dihydroquinazolin-6-yl)amino)-4-fluorophenyl)-3-fluoroazetidine-1-sulfonamide] | – | – | – | – | – | – | Kp,uu (unbound brain-to-unbound plasma ratio) [1]: 0.12 to 0.17; substrate of active transporter P-glycoproteins (P-gp) (MDR1 (P-gp)): not a substrate; substrate of active transporter breast cancer resistance protein (BCRP) (BCRP [2]): not a substrate; IC50 [3]: 3 nM
CC(C)(C)c1nc(-c2cccc(NS(=O)(=O)c3c(F)cccc3F)c2F)c(-c2ccnc(N)n2)s1 [dabrafenib] | – | – | – | – | – | 21.0 | –
CCCS(=O)(=O)Nc1ccc(F)c(C(=O)c2c[nH]c3ncc(-c4ccc(Cl)cc4)cc23)c1F [vemurafenib] | – | – | – | – | – | 495 | –

Further lines, with some results ahead:

Mass Gain at 25° C. and 90% RH [4] | Solid form identified by PXRD after 8 days ([5]; stored at 5° C.) | Solid form identified by PXRD after 8 days ([5]; stored at 70° C./75% RH) | Structure (SMILES) | Hygroscopicity [4] | physical stability under accelerated stability conditions [5] | BCRP efflux ratio (BCRP [6]) | other results
approximately 3.6% | amorphous compound 1, | crystalline anhydrous | Cn1cnc2ccc(Nc3c(F)ccc(NS(=O)(=O)N4CC(F)C4)c3Cl)c(Cl)c2c1=O [amorphous Compound 1, Form 2, amorphous N-(2-chloro-3-((5-chloro-3-methyl-4-oxo-3,4-dihydroquinazolin-6-yl)amino)-4-fluorophenyl)-3-fluoroazetidine-1-sulfonamide, Form 2] | hygroscopic | crystallized to crystalline anhydrous Compound 1, Form 1 | – | Hygroscopicity ([4]; Form 2): Hygroscopic; Mass Gain at 25° C. and 60% RH ([4]; Form 2): 1.7%; Mass Gain at 25° C. and 90% RH ([4]; Form 2): 3.6%; PXRD Post-DVS ([4]; Form 2): amorphous Compound
0.0% | crystalline anhydrous | crystalline anhydrous | Cn1cnc2ccc(Nc3c(F)ccc(NS(=O)(=O)N4CC(F)C4)c3Cl)c(Cl)c2c1=O [crystalline anhydrous Compound 1, Form 1, crystalline anhydrous N-(2-chloro-3-((5-chloro-3-methyl-4-oxo-3,4-dihydroquinazolin-6-yl)amino)-4-fluorophenyl)-3-fluoroazetidine-1-sulfonamide, Form 1] | not hygroscopic; also recorded: Non-Hygroscopic | stable | – | Mass Gain at 25° C. and 60% RH [4]: 0.0%; PXRD Post-DVS [4]: crystalline anhydrous
